Consider eight compounds from patent publication US8574590B2 (Integral Molecular, Inc., priority 2003, dated 2013).

For data set [1] the following is noted: read-out: Kd for Ca^++; cited from earlier work.
The target of data set [2] is Kv1.3 (Homo sapiens, UniProt P22001). The note with it: cited from earlier work.
In data set [3] the target is Shaker (Drosophila melanogaster, UniProt P08510). Conditions: cited from earlier work.
Data set [4] concerns K-channels. Conditions: cited from earlier work.
The test system of data set [5] is Gag/luciferase-lipoparticles. The data set can be described thus: Melittin poration of Gag/luciferase-lipoparticles (luciferase luminescence). Format: biochemical. Conditions: melittin 0.3 to 105 uM, 30 minutes. As to the method: FIG. 24. […] Lipoparticles were constructed to contain a luciferase enzyme inside the lipoparticle. […] To insure the integrity of the luciferase, after each addition of melittin, the same sample was lysed with Triton X-100 (circles) and again measured.
Lipoparticles containing a Gag-luciferase fusion protein were prepared as described herein. Melittin, ranging from 0.3 to 105 uM in final concentration, was added to solutions of Gag/luciferase-lipoparticles (MOPS pH 6.5 buffer), mixed, and incubated for 30 minutes. A 5 μl aliquot of the Lipoparticle solution was then transferred to a 96-well plate containing 50 μl of Luciferase assay reagent (Promega Steady Glo Luciferase Assay System) which contains the necessary reagents for enzymatic activity, including luciferin, ATP, and Mg^2+. Luminescence was measured for 1 second integrations in a Wallac Victor2V. […] Triton X-100 was used to lyse luciferase-lipoparticles as a positive control.

The conditions of data set [6]: depending on the ionic composition of the membrane; cited from earlier work.
Data set [7] deals with Ca-activated K-channels. Conditions: cited from earlier work.

Where two headings read alike, the source gives them in different places.

Chain of Shaker (P08510 whole entry): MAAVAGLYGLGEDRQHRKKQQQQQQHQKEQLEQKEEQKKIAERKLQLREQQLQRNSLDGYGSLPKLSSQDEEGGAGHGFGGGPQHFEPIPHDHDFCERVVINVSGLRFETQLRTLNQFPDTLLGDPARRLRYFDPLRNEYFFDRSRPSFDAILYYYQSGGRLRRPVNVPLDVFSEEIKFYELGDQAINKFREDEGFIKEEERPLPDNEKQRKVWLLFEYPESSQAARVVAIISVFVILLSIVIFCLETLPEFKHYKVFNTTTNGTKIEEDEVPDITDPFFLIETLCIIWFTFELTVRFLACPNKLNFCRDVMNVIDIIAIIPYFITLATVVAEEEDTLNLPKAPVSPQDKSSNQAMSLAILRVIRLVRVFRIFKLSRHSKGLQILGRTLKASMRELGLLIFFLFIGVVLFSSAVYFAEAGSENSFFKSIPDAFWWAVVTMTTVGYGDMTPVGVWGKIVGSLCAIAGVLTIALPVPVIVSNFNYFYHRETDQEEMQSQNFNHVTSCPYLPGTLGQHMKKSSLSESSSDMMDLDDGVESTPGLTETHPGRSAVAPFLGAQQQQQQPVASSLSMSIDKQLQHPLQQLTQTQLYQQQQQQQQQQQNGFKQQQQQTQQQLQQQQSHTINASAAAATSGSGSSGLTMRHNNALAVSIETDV
Chain of Kv1.3 (P22001 whole entry): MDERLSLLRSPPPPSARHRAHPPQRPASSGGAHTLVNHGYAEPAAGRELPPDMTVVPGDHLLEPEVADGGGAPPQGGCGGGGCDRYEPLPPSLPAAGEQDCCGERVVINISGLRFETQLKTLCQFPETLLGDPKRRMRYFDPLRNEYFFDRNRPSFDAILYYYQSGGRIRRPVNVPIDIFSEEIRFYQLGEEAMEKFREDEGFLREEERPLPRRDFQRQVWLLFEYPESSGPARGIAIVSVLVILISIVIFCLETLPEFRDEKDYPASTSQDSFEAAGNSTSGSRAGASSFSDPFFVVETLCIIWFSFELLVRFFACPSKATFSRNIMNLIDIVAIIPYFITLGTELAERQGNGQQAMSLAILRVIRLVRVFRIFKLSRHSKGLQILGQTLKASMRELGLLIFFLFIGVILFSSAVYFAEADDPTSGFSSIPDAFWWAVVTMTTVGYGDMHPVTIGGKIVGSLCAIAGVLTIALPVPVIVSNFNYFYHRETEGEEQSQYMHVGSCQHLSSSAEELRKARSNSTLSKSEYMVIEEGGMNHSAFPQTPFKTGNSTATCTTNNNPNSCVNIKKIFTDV

Broadly, the Kd is the equilibrium constant for the complex coming apart. Regarding `Cc1ccc(N(CC(=O)O)CC(=O)O)c(OCCOc2cc3cc(-c4ncc(C(=O)O)o4)oc3cc2N(CC(=O)O)CC(=O)O)c1` [Fura-2], the dissociation constant (Kd) in data set [1] is 0.14 µM.
Consider Alpha-Dendrotoxin, for which the “Blocking of Kv1.3” value in data set [2] was “Blocks Kv1.3 and Shaker”. Further, in data set [3], the “Blocking of Shaker” value is “Blocks Kv1.3 and Shaker”. Further, in data set [4] (high ionic strength), the “binding under high ionic strength conditions” value was “Binds very weakly under high ionic strength”. Further, the “binding under low ionic strength conditions” value in data set [4] (low ionic strength) is reported as “Binds strongly under low ionic strength conditions”.
In the case of Charybdotoxin, the “Blocking of Kv1.3” value in data set [2] was “Blocks Kv1.3 and Shaker”; in data set [2] (listed as CHTX) it was “highly specific, potent, and impermeant blocker”. The “Blocking of Shaker” value in data set [3] is “Blocks Kv1.3 and Shaker”; in data set [3] (listed as CHTX), “highly specific, potent, and impermeant blocker”. Moreover, in data set [4], the “effect of Ca on binding” value is listed as “Ca inhibits binding”. Besides, the “binding at low ionic strength, high pH (8.5)” value in data set [4] (low ionic strength, high pH (8.5)) is “Low ionic strength, high pH (8.5) enhances binding”.
Margatoxin: the “Blocking of Kv1.3” value in data set [2] is listed as “Blocks”. The “Blocking of Shaker” value in data set [3] was “not Shaker”.
For `CC[C@H](C)[C@H](NC(=O)CN)C(=O)NCC(=O)N[C@@H](C)C(=O)N[C@H](C(=O)N[C@@H](CC(C)C)C(=O)N[C@@H](CCCCN)C(=O)N[C@H](C(=O)N[C@@H](CC(C)C)C(=O)N[C@H](C(=O)N[C@H](C(=O)NCC(=O)N[C@@H](CC(C)C)C(=O)N1CCC[C@H]1C(=O)N[C@@H](C)C(=O)N[C@@H](CC(C)C)C(=O)N[C@H](C(=O)N[C@@H](CO)C(=O)N[C@@H](Cc1c[nH]c2ccccc12)C(=O)N[C@H](C(=O)N[C@@H](CCCCN)C(=O)N[C@@H](CCCNC(=N)N)C(=O)N[C@@H](CCCCN)C(=O)N[C@@H](CCCNC(=N)N)C(=O)N[C@@H](CCC(N)=O)C(=O)N[C@@H](CCC(N)=O)C(N)=O)[C@@H](C)CC)[C@@H](C)CC)[C@@H](C)O)[C@@H](C)O)C(C)C)C(C)C` [Melittin], the “permeabilization of lipoparticles (luciferase signal)” value was “increase of the luminescent signal” in data set [5] and “the lipoparticles were permeabilized” in data set [5] (listed as melittin).
As for “Agitoxin-2: toxin, inhibitor of K-channels”, in data set [2], the “Blocking of Kv1.3” value was “Blocks Kv1.3 and Shaker”. Also, the “Blocking of Shaker” value in data set [3] is “Blocks Kv1.3 and Shaker”.
With `CCCCCCCCCCCCCCCCCc1cc(=O)oc2cc(O)ccc12` [4-heptadecyl-7-hydroxycoumarin], the pKa range in data set [6] is given as 6.35-11.15.
Consider “Iberiotoxin: toxin, inhibitor of K-channels (QFTDVDCSVSKECWSVCKDLFGVDRGKCMGKKCRCYQ; UniProt P24663 1-37, looked up)”, for which the “Blocking of Kv1.3” value in data set [2] is reported as “not Kv1.3”. For the same compound, the “Blocking of Shaker” value in data set [3] is “not”. The “Blocking of Ca-activated K-channels” value in data set [7] was “Blocks”.
